Our source for the Activity, inhibition and Fold change values is ChEMBL document CHEMBL1149557, “Induction of GRP78 by valproic acid is dependent upon histone deacetylase inhibition” (2007).

The subject of assay [1] is HEK293. The experiment in a line: Increase in GRP78 protein level in HEK293 cells at 2 mM by immunoblot. The class given is functional, cell-based. To be noted: Homo sapiens. A general note: A western blot detects proteins with antibodies after separation by electrophoresis.
In assay [2] the target is Glycogen synthase kinase-3 beta (Homo sapiens) (UniProt P49841). As to the kind of experiment: Inhibition of GSK3-beta at 2 mM relative to control.
Assay [3] deals with T1, Histone deacetylase (Homo sapiens) (UniProt Q13547+O15379+Q9UBN7+Q92769+Q9UQL6+Q8WUI4+Q9BY41+Q96DB2+P56524+Q9UKV0+Q969S8). As to the kind of experiment: Inhibition of HDAC in HEK293 cells assessed as increase in histone H4 acetylation at 2 mM after 48 hrs. The class given is cell-based.
The test system of assay [4] is HEK293. The experiment in a line: Increase in protein disulfide isomerase level in HEK293 cells at 600 nM by immunoblot. In kind it is functional, cell-based. The following applies: Homo sapiens.
For assay [5], the system named is HEK293. The experiment in a line: Increase in GRP78 protein level in HEK293 cells at 600 nM by immunoblot. The class given is functional, cell-based. The following applies: Homo sapiens.
Assay [6] relates to HEK293. The experiment in a line: Increase in protein disulfide isomerase level in HEK293 cells at 2 mM by immunoblot. In kind it is functional, cell-based. To be noted: Homo sapiens.
Assay [7] addresses T1, Histone deacetylase (Homo sapiens). As to the kind of experiment: Inhibition of HDAC in HEK293 cells assessed as increase in histone H4 acetylation at 1 mM after 48 hrs relative to control. In kind it is cell-based.
The test system of assay [8] is HEK293. The experiment in a line: (§1) Increase in GRP78 protein level in HEK293 cells at 1 mM by immunoblot. The class given is functional, cell-based. To be noted: Homo sapiens.
The test system of assay [9] is HEK293. As to the kind of experiment: Increase in protein disulfide isomerase level in HEK293 cells at 1 mM by immunoblot. In kind it is functional, cell-based. To be noted: Homo sapiens.
Assay [10] relates to HEK293. Described as §1. The class given is functional, Homo sapiens.
Assay [11] has as its system HEK293. The experiment in a line: Increase in GRP78 protein level in HEK293 cells at 10 ug/mL by immunoblot. In kind it is functional, cell-based. To be noted: Homo sapiens.
The test system of assay [12] is HEK293. As to the kind of experiment: Increase in protein disulfide isomerase level in HEK293 cells at 10 ug/ml by immunoblot. The class given is functional, cell-based. To be noted: Homo sapiens.
Assay [13] concerns HEK293. The experiment in a line: Induction of GADD153/CHOP protein level in HEK293 cells by immunoblot. The class given is functional, cell-based. To be noted: Homo sapiens.

Molecules are shown by their SMILES. The source made the active and inactive calls. The calls are words filed in the database; no cut-off is given here.

Chain of Glycogen synthase kinase-3 beta (Homo sapiens) (P49841 whole entry, looked up): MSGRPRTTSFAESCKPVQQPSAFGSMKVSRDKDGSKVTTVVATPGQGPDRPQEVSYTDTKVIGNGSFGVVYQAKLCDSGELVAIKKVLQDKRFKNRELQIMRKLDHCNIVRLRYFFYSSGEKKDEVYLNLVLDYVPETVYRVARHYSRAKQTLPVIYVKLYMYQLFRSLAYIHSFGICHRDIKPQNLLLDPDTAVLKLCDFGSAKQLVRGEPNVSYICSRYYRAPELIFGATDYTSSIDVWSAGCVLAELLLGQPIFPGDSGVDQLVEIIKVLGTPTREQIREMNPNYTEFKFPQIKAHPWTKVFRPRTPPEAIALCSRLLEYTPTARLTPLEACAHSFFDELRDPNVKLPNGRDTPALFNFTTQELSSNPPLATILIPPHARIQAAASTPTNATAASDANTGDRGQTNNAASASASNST

What is called inhibition is the drop in the measured response relative to a control, in per cent. With `CCC(CC)C(=O)O`, the outcome (with HEK293 [1]; in [3]) was inactive. Moreover, the inhibition in [2] was 2.9%.
Turning to `CC(/C=C/C(=O)NO)=C\[C@@H](C)C(=O)c1ccc(N(C)C)cc1`, the result in the assay on HEK293 [4] and with HEK293 [5] was Active.
With `CC/C=C(\CCC)C(=O)O`, the result (with HEK293 [1]; in [3]; in the assay on HEK293 [6]) was Active. The inhibition in assay [2] was 91.3%.
`CCCC(CCC)C(=O)O` [VALPROIC ACID]: the values for the Fold change (in assay [7]; in the assay with HEK293 [10]) were 3.5 and 2, respectively. Besides, the result with HEK293 [8] and in the assay on HEK293 [9] was Active. For the same compound, the inhibition in assay [2] worked out at 65.2%.
With `O=C(O)CCCc1ccccc1`, the inhibition in assay [2] was 126%. For the same compound, in assay [3], the outcome was inactive.
In the case of `CC(=O)N[C@H]1[C@@H](O[C@@H]2O[C@H](CC(O)[C@H]3O[C@@H](n4ccc(=O)[nH]c4=O)[C@H](O)[C@@H]3O)[C@H](O)[C@H](O)[C@H]2NC(=O)/C=C/CC(C)C)O[C@H](CO)[C@@H](N)[C@@H]1O` (some centres undefined), the result in the assay with HEK293 [11], with HEK293 [12] and in the assay with HEK293 [13] was Active.
